In publication PMC12348470, “Amino Acid Substitutions in Bacteriocin Lactolisterin BU Reveal Functional Domains Involved in Biological Activity Against Staphylococcus aureus” (Molecules, 2025):
Ends that are not written are not given here.

Key:
[1] = test system: icaR; assay: Virulence gene expression, RT-qPCR; type: cell-based, S. aureus ATCC 25923; conditions: half MIC, 16–18 h, 37 °C, normalised to gmk, duplicate
Description: (§1) Untreated bacterial cultures in corresponding media served as controls.
(§2) All experiments were performed in duplicate.

[2] = test system: lukSPV; assay: Virulence gene expression, RT-qPCR; type: cell-based, S. aureus ATCC 25923; conditions: half MIC, 16–18 h, 37 °C, normalised to gmk, duplicate
Description: as §1, §2

[3] = test system: Caco-2 cells
Description: Caco-2 cells were used in the toxicity assay to model the human intestinal epithelium, as they closely mimic the morphology and function of enterocytes. This makes them a relevant in vitro system for evaluating the potential cytotoxic effects of bacteriocins upon oral exposure or gastrointestinal application.
The cytotoxic effects of peptides were evaluated on human colorectal adenocarcinoma Caco-2 cells (ATCC HTB-37). The cells were cultured in Dulbecco’s Modified Eagle Medium (DMEM, high glucose; Gibco, Thermo Fisher Scientific) supplemented with 10% fetal bovine serum (FBS) and 1% penicillin–streptomycin. The cells were maintained at 37 °C in a humidified incubator with 5% CO2 and subcultured twice weekly, according to Popovic et al..
Cytotoxic effects of peptides on Caco-2 cells were assessed using a lactate dehydrogenase (LDH) release assay according to the manufacturer’s protocol (Lactate Dehydrogenase Cytotoxicity Assay Kit (Thermo Fisher Scientific, Waltham, MA, USA)). The Caco-2 cells were seeded in 96-well flat-bottom plates at a density of 2 × 10^4 cells per well and allowed to reach confluency over 48 h at 37 °C and 5% CO2.
The cells were then incubated for 24 h. Untreated cells (incubated with medium only) served as a negative control, and cells treated with LDH Lysis buffer were used as a positive control.
Following peptide treatment, 50 µL of cell culture supernatant was transferred from each well into a new 96-well plate. LDH reaction mixture (50 µL) was added to each well and incubated at room temperature for 30 min in the dark. The absorbance was measured at 490 nm using a microplate reader.
Cytotoxicity (%) was calculated using the following formula: Cytotoxicity (%) = Asample − Anegative/Apositive − Anegative × 100
The assay was performed in triplicate.

Sequence	icaR expression, log2 fold-change vs untreated control ([1]; FBS)	icaR expression, log2 fold-change vs untreated control ([1]; LB medium)	lukSPV expression, log2 fold-change vs untreated control ([2]; FBS)	lukSPV expression, log2 fold-change vs untreated control ([2]; LB medium)	TI (LC50/MIC), Caco-2 [3]
MWARILGTVAKYGPKAVSWAWQHKWELINMGDLAFRYIQRIWG [Peptide G3A]	-1.43 log2 fold change	0.06 log2 fold change	-1.54 log2 fold change	1.77 log2 fold change	7.03
MWGRILATVAKYGPKAVSWAWQHKWELINMGDLAFRYIQRIWG [Peptide G7A]	1.71 log2 fold change	0.10 log2 fold change	1.22 log2 fold change	-2.88 log2 fold change	5.11
MWGRILGTVAKYAPKAVSWAWQHKWELINMGDLAFRYIQRIWG [Peptide G13A]	2.66 log2 fold change	0.36 log2 fold change	2.49 log2 fold change	-2.28 log2 fold change	1.20
